According to PMC13039201 (Scientific Reports, 2026):
Where two headings read alike, the source gives them in different places.

Experiments:
HA = settings: read-out: KD reported in the literature; cited from earlier work
[1] = molecular target: HA captured from plasma (ACLF patients, CTRL) (Homo sapiens, UniProt P02768); assay type: binding; settings: ACLF n = 6 vs CTRL n = 6, Student's t-test on KD values
[2] = molecular target: Human serum albumin (HA), commercial HA (Homo sapiens, UniProt P02768)
[3] = molecular target: HA captured from plasma (T2DM-DKD, T2DM+DKD) (Homo sapiens, UniProt P02768); assay type: binding; settings: n = 10 each, KD values
anti-HA antibody = test: SPR injection on the bare anti-HA sensor chip without any immobilized HA; assay type: binding, rabbits

HA captured from plasma (ACLF patients, CTRL), sequence (P02768 25-609): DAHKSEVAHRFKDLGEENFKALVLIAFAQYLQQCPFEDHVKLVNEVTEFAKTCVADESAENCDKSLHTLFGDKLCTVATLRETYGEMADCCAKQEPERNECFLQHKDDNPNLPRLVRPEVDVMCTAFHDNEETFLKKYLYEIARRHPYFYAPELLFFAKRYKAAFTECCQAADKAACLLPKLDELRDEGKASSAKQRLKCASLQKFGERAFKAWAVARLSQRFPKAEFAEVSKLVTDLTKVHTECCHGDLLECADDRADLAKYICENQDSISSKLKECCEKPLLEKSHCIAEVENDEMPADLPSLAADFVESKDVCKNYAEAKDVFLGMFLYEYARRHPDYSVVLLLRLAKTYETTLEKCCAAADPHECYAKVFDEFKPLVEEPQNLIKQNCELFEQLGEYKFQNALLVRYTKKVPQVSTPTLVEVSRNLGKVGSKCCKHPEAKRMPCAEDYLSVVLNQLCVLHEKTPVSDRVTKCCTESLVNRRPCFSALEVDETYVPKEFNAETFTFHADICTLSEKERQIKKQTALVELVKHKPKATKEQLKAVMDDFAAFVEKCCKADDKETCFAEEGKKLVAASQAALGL
Human serum albumin (HA), commercial HA, sequence (P02768 25-609): as above
HA captured from plasma (T2DM-DKD, T2DM+DKD), sequence (P02768 25-609): as above

| Molecule | Kd (HA) [µM] | affinity of HA from ACLF patients compared with HA from CTRL subjects [1] | further results |
| --- | --- | --- | --- |
| CN(C)c1cccc2c(S(=O)(=O)N[C@@H](Cc3ccccc3)C(=O)O)cccc12 [DPA, dansyl-L-phenylalanine] | 6 | no significant differences | Kd ([2]; commercial HA captured on chip, steady state 1:1 model, 25 °C, validation): 1.7 ± 0.3 µM |
| teicoplanin |  | reduced its binding affinity | binding capacity of HA in T2DM + DKD patients compared with T2DM-DKD [3]: did not significantly affect |
| COc1ccc2c3c1O[C@H]1C[C@@H](O)C=C[C@@]31CCN(C)C2 [galantamine] |  |  | interaction with HA (negative control) ([2]; 0.370-30.0 µM, 10 µL/min, 60 s): no interaction |
| CCCCC1C(=O)N(c2ccccc2)N(c2ccccc2)C1=O [PBZ, phenylbutazone] | 0.12 to 3.3 |  |  |
| C=CC1=C(C)/C(=C/C2=NC(=C\c3[nH]c(/C=C4\NC(=O)C(C)=C4C=C)c(C)c3CCC(=O)O)/C(CCC(=O)O)=C2C)NC1=O [BVD, biliverdin] |  | no significant differences | Kd [2]: 13 ± 3 µM; interactions with the anti-HA antibody (anti-HA antibody): significant interactions |
